Source: ChEMBL document CHEMBL1201862, “PubChem BioAssay data set” (2004)
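How tested: cells in 96-well plates exposed to compound for 48 hours at five concentrations. GI50 marks 50% less growth.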 Calls of active or inactive are those of the source. No stated cut-off is given here; in the data, active = GI50 up to about 1.1 µM and inactive = higher.

Assays:
Test in all cases: inhibition of tumour cell growth, NCI panel, 48 h
A549 = system: A549
BT-549 = system: BT-549
COLO 205 = system: COLO 205
DU-145 = system: DU-145
HCC 2998 = system: HCC 2998
HCT-15 = system: HCT-15
HOP-62 = system: HOP-62
HOP-92 = system: HOP-92
Hs-578T = system: Hs-578T
MCF7 = system: MCF7
MDA-MB-231 = system: MDA-MB-231
MDA-MB-435 = system: MDA-MB-435
MDA-N = system: MDA-N
NCI/ADR-RES = system: NCI/ADR-RES
OVCAR-4 = system: OVCAR-4
PC-3 = system: PC-3
RXF 393 = system: RXF 393
T47D = system: T47D
UO-31 = system: UO-31

Measured: GI50

COc1cc(C=O)cc(/C=N/c2ccc(Br)cc2)c1O
2.15 µM: HCT-15
active: MDA-MB-435 1.05 µM
inactive: A549 4.85 µM | BT-549 6.25 µM | COLO 205 4.09 µM | DU-145 11.3 µM | HCC 2998 14.1 µM | HOP-62 11.7 µM | HOP-92 3.53 µM | Hs-578T 1.8 µM | MCF7 4.47 µM | MDA-MB-231 4.44 µM | MDA-N 3.72 µM | NCI/ADR-RES 2.49 µM | OVCAR-4 22.5 µM | PC-3 2.81 µM | RXF 393 4.43 µM | T47D 1.15 µM | UO-31 3.2 µM

COc1cc2c(cc1OC)C(=O)/C(=C/c1ccc(N(C)C)cc1)CC2
> 10 µM: HCT-15
inactive: A549 > 10 µM | BT-549 > 10 µM | COLO 205 > 10 µM | DU-145 > 10 µM | HCC 2998 > 10 µM | HOP-62 > 10 µM | HOP-92 > 10 µM | Hs-578T > 10 µM | MCF7 > 10 µM | MDA-MB-231 > 10 µM | MDA-MB-435 > 10 µM | MDA-N > 10 µM | NCI/ADR-RES > 10 µM | OVCAR-4 > 10 µM | PC-3 > 10 µM | RXF 393 > 10 µM | T47D > 10 µM | UO-31 > 10 µM

CCOC(=O)c1c(N2CCCC2)[nH]c(=O)c(C(c2cccs2)c2c(O)c(C(=O)OCC)c(N3CCCC3)[nH]c2=O)c1O
inactive: A549 > 100 µM | BT-549 > 100 µM | COLO 205 > 100 µM | DU-145 > 100 µM | HCC 2998 > 100 µM | HOP-62 > 100 µM | HOP-92 > 100 µM | Hs-578T > 100 µM | MCF7 > 100 µM | MDA-MB-231 > 100 µM | MDA-MB-435 > 100 µM | MDA-N > 100 µM | NCI/ADR-RES > 100 µM | OVCAR-4 > 100 µM | PC-3 > 100 µM | RXF 393 > 100 µM | T47D > 100 µM | UO-31 > 100 µM
> 100 µM: HCT-15

N=C(N)SCCc1ccncc1
inactive: A549 > 100 µM | BT-549 > 100 µM | COLO 205 > 100 µM | DU-145 > 100 µM | HOP-62 > 100 µM | HOP-92 > 100 µM | Hs-578T > 100 µM | MCF7 > 100 µM | MDA-MB-231 > 100 µM | MDA-MB-435 > 100 µM | MDA-N > 100 µM | NCI/ADR-RES > 100 µM | OVCAR-4 > 100 µM | PC-3 > 100 µM | RXF 393 > 100 µM | T47D > 100 µM | UO-31 > 100 µM
> 100 µM: HCT-15

Cc1nn(C(=O)c2ccccc2O)c2c1C(c1ccccc1O)SC(=N)N2 (stereo not given)
4.42 µM: HCT-15
inactive: A549 8.04 µM | BT-549 > 10 µM | COLO 205 > 10 µM | DU-145 8.85 µM | HCC 2998 > 10 µM | HOP-92 > 10 µM | Hs-578T > 10 µM | MCF7 2.75 µM | MDA-MB-435 3.08 µM | MDA-N > 10 µM | NCI/ADR-RES 4.09 µM | OVCAR-4 2.53 µM | PC-3 7.71 µM | RXF 393 > 10 µM | T47D 5.78 µM
active: HOP-62 0.869 µM | MDA-MB-231 0.649 µM

O=C1/C(=c2\c3ccccc3n3c(=O)c4ccccc4nc23)Nc2ccccc21 [CANDIDINE]
> 100 µM: HCT-15
inactive: A549 > 84.5 µM | BT-549 > 100 µM | COLO 205 58.5 µM | DU-145 > 100 µM | HCC 2998 > 82.4 µM | HOP-62 > 70.5 µM | HOP-92 > 75.7 µM | Hs-578T 29.9 µM | MCF7 > 70.1 µM | MDA-MB-231 > 70.3 µM | MDA-MB-435 18.5 µM | MDA-N 18.6 µM | NCI/ADR-RES > 100 µM | OVCAR-4 > 100 µM | PC-3 > 100 µM | RXF 393 > 100 µM | T47D > 26.7 µM | UO-31 > 21.5 µM

Cc1cc2nc3ccccc3n2c2nc(N)ccc12
12 µM: HCT-15
inactive: A549 30.9 µM | BT-549 68.9 µM | COLO 205 32.9 µM | DU-145 52.6 µM | HCC 2998 39.6 µM | HOP-62 26.3 µM | HOP-92 16.6 µM | Hs-578T 35.3 µM | MCF7 44 µM | MDA-MB-231 58.2 µM | MDA-MB-435 49.5 µM | MDA-N 49.4 µM | NCI/ADR-RES 23.2 µM | OVCAR-4 44.9 µM | PC-3 40.4 µM | RXF 393 41.2 µM | T47D 38.2 µM | UO-31 16.3 µM

Cc1ccc(P(c2ccc(C)cc2)c2ccc(C)cc2)cc1
inactive: A549 14.6 µM | BT-549 35.4 µM | COLO 205 14.5 µM | DU-145 16.5 µM | HCC 2998 16.1 µM | HOP-92 5.66 µM | Hs-578T 15.5 µM | MCF7 31.3 µM | MDA-MB-231 25.9 µM | MDA-MB-435 19.1 µM | MDA-N 21.9 µM | NCI/ADR-RES 27.5 µM | OVCAR-4 19.8 µM | PC-3 30.6 µM | RXF 393 15.5 µM | T47D 16.3 µM
20.2 µM: HCT-15
active: UO-31 < 0.01 µM

C/C(=N\NC(=O)c1ccncc1)c1ccc2ccccc2c1O
active: COLO 205 0.561 µM | OVCAR-4 0.966 µM | T47D 1.01 µM | UO-31 0.838 µM
inactive: A549 1.77 µM | BT-549 10.8 µM | DU-145 2.25 µM | HCC 2998 2.9 µM | HOP-62 4.37 µM | HOP-92 8.28 µM | Hs-578T 16.8 µM | MCF7 1.35 µM | MDA-MB-231 5.08 µM | MDA-MB-435 8.99 µM | MDA-N 4.41 µM | NCI/ADR-RES 1.87 µM | PC-3 5.6 µM | RXF 393 3.08 µM
0.419 µM: HCT-15

C=CCSc1nnc2cc(CN3CCCC3)c(-c3ccc(Cl)cc3)nn12
21.3 µM: HCT-15
inactive: A549 28.1 µM | BT-549 20.7 µM | COLO 205 17.6 µM | DU-145 20.3 µM | HOP-62 20.7 µM | HOP-92 16.1 µM | Hs-578T 40.6 µM | MCF7 16.1 µM | MDA-MB-231 19.6 µM | MDA-MB-435 20 µM | MDA-N 16.7 µM | NCI/ADR-RES 23.3 µM | OVCAR-4 20.3 µM | PC-3 17.9 µM | RXF 393 15.1 µM | T47D 20.9 µM | UO-31 16 µM

Cc1ccc(C(=O)N/N=C2/C(=O)c3c4ccccc4cc4cccc2c34)cc1
20.6 µM: HCT-15
inactive: A549 32.4 µM | BT-549 > 100 µM | COLO 205 31.3 µM | DU-145 3.44 µM | HCC 2998 38.8 µM | HOP-62 16.2 µM | HOP-92 46.6 µM | Hs-578T 19.1 µM | MCF7 2.3 µM | MDA-MB-231 37 µM | MDA-MB-435 23.9 µM | MDA-N 37.8 µM | NCI/ADR-RES 30.1 µM | OVCAR-4 18.2 µM | PC-3 25.3 µM | RXF 393 12.6 µM | T47D 13.4 µM | UO-31 17.2 µM
